Data published in the supplement of paper PMC10307832.

Tests used:
Test in all cases: relative viability (nuclei count vs DMSO), 5 days (fraction); higher = more cells survive
Sulindac + Phenformin = compound: CC1=C(CC(=O)O)c2cc(F)ccc2/C1=C\c1ccc([S+](C)[O-])cc1 [Sulindac] + N=C(N)NC(=N)NCCc1ccccc1 [Phenformin] (partner 250 µM)
How it was run: (§1)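 Relative viability was taken as the ratio of nuclei in treated wells to nuclei in vehicle wells. Lung cancer cell lines in 1536-well plates received compounds by pin tool one day after seeding, either one drug alone or a fixed anchor-drug dose plus five library-drug doses (not always all listed) in √10 steps. Nuclei were counted on 4× images after 5 days of treatment, and values are medians of duplicate plates.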

[1] = compound: CN[C@@H]1C[C@H]2O[C@@](C)([C@@H]1OC)n1c3ccccc3c3c4c(c5c6ccccc6n2c5c31)C(=O)NC4 [Staurosporine] + CC(=O)c1c(C)c2cnc(Nc3ccc(N4CCNCC4)cn3)nc2n(C2CCCC2)c1=O [Palbociclib] (partner 0.5 µM)
How it was run: as §1

[2] = compound: O=c1[nH]cc(F)c(=O)[nH]1 [5-Fluorouracil] + C[C@]1(O)C[C@@H](c2nc(-c3ccc4ccc(-c5ccccc5)nc4c3)c3c(N)nccn32)C1 [Linsitinib] (partner 1 µM)
How it was run: as §1

Sulindac + Linsitinib = compound: CC1=C(CC(=O)O)c2cc(F)ccc2/C1=C\c1ccc([S+](C)[O-])cc1 [Sulindac] + C[C@]1(O)C[C@@H](c2nc(-c3ccc4ccc(-c5ccccc5)nc4c3)c3c(N)nccn32)C1 [Linsitinib] (partner 1 µM)
How it was run: as §1

## UMC-11
Sulindac + Phenformin; first compound 0.08 µM
  relative viability: 0.359
Sulindac + Phenformin; first compound 0.253 µM
  relative viability: 0.352
Sulindac + Phenformin; first compound 0.8 µM
  relative viability: 0.284
Sulindac + Phenformin; first compound 2.53 µM
  relative viability: 0.323
Sulindac + Phenformin; first compound 8 µM
  relative viability: 0.396
[1]; first compound 0.005 µM
  relative viability: 0.335
[1]; first compound 0.05 µM
  relative viability: 0.201
[1]; first compound 0.1581 µM
  relative viability: 0.152
[1]; first compound 0.5 µM
  relative viability: 0.158
[2]; first compound 0.02 µM
  relative viability: 0.969
[2]; first compound 0.2 µM
  relative viability: 0.674
[2]; first compound 0.6325 µM
  relative viability: 0.512
[2]; first compound 2 µM
  relative viability: 0.363
Sulindac + Linsitinib; first compound 0.08 µM
  relative viability: 1.27
Sulindac + Linsitinib; first compound 0.253 µM
  relative viability: 1.02
Sulindac + Linsitinib; first compound 0.8 µM
  relative viability: 0.815
Sulindac + Linsitinib; first compound 2.53 µM
  relative viability: 1.06
Sulindac + Linsitinib; first compound 8 µM
  relative viability: 1.07
